Laboratory results from article PMC12029982, “The Mechanism of a Novel Mitochondrial-Targeted Icaritin Derivative in Regulating Apoptosis of BEL-7402 Cells Based on the SIRT3 and CypD-Mediated ROS/p38 MAPK Signaling Pathway” (Molecules, 2025).

Legend:
[1] = system: DDIT3; experiment: qRT-PCR; format: cell-based, human; conditions: vs blank control, BEL-7402, p < 0.05
Procedure: (§1) Total RNA was extracted from BEL-7402 cells before and after Mito-ICT-4 treatment using the Trizol method. The RNA was then reverse transcribed and used for quantitative real-time PCR (qRT-PCR) analysis. All gene sequences were obtained from the official website of NCBI (http://ncbi.nlm.nih.gov, accessed on 16 December 2023), and primers were designed and synthesized by Sangon Biotech. β-actin was used as an internal reference. To each well, 10 µL of 2 × SGExcel FastSYBR (Sangon Biotech, Shanghai, China) mixture was added, along with 0.4 µL each of forward and reverse primers (F/R), followed by 2 µL of cDNA. The volume was then adjusted to 20 µL with water. The qRT-PCR amplification procedure included the following steps: pre-denaturation at 95 °C for 3 min, denaturation at 95 °C for 15 s, and annealing at 60 °C for 45 s. A total of 45 cycles were performed. Fluorescence signals were collected from 60 °C to 95 °C using an ABI 7500 fluorescence quantitative PCR instrument (ABI, Waltham, MA, USA). Gene expression was calculated using the 2^−ΔΔCt method.

[2] = system: SIRT3; experiment: qRT-PCR; format: cell-based, human; conditions: vs blank control, BEL-7402, p < 0.05
Procedure: as §1

[3] = system: P38; experiment: qRT-PCR; format: cell-based, human; conditions: vs blank control, BEL-7402, p < 0.05
Procedure: as §1

[4] = system: CypD; experiment: qRT-PCR; format: cell-based, human; conditions: vs blank control, BEL-7402, p < 0.05
Procedure: as §1

[5] = system: MKK6; experiment: qRT-PCR; format: cell-based, human; conditions: vs blank control, BEL-7402, p < 0.05
Procedure: as §1

[6] = system: A549; experiment: MTT assay, antiproliferative activity; format: cell-based; conditions: Homo sapiens, 48 h drug exposure, mean ± SD
Procedure: (§2) Human cancer cell lines BEL-7402, A549, MCF-7, PC-3M, and normal renal cell line HEK293 were bought from the BeNa Culture Collection (Beijing, China). BEL7402, A549, and PC-3M were cultured in RPMI 1640 medium (Gibco, Carlsbad, CA, USA). MCF-7 and HEK293 were cultured in the DMEM medium (Gibco, CA, USA). The medium was supplemented with 10% fetal bovine serum (FBS) (CLARK, San Diego, CA, USA), 100 U/mL penicillin, and 0.1 mg/mL streptomycin (Beyotime, Nanjing, China). The cells were incubated in 5% CO2 at 37 °C.
(§3) The MTT assay was employed to assess the inhibitory effect of each compound on cell growth. A549, PC-3M, MCF-7, BEL-7402, and HEK293 cells in the logarithmic growth phase were seeded in 96-well culture plates at an inoculum density of 5 × 10^4 cells/mL. After overnight incubation at 37 °C in a 5% CO2 atmosphere, the cells fully adhered to the surface. Different concentrations of sample solutions (0, 3.125, 6.25, 12.5, 25, 50, 100 μmol/L) were added (100 μL) to treat the cells. After 48 h of drug treatment, 10 μL of a 5 mg/mL MTT solution was added to each well and incubated for 4 h at 37 °C. The supernatant was then discarded, and 150 μL of DMSO was added to dissolve the formazan. The mixture was shaken at room temperature for 15 min, and the absorbance (D) value was measured at 490 nm using a Microplate Reader (HBS-ScanY, Nanjing, China). The drug IC50 values were calculated using GraphPad Prism (v10.0). Each cell viability experiment was performed in triplicate.

[7] = system: MCF-7; experiment: MTT assay, antiproliferative activity; format: cell-based; conditions: Homo sapiens, MCF7, 48 h drug exposure, mean ± SD
Procedure: as §2, §3

[8] = system: PC-3M; experiment: MTT assay, antiproliferative activity; format: cell-based; conditions: Homo sapiens, 48 h drug exposure, mean ± SD
Procedure: as §2, §3

[9] = system: BEL-7402; experiment: MTT assay, antiproliferative activity; format: cell-based; conditions: Homo sapiens, 48 h drug exposure, mean ± SD
Procedure: as §2, §3

[10] = system: BEL-7402 cells; experiment: Annexin V-FITC/PI flow cytometry apoptosis assay; format: cell-based, human
Procedure: BEL-7402 cells in the logarithmic growth phase were prepared into a cell suspension at a concentration of 2.5 × 10^5 cells/mL and seeded into 6-well culture plates with 2 mL per well. After overnight incubation, different concentrations of Mito-ICT-4 (0.625, 1.25, 2.5 μmol/L) were added to the cells, and a control group was included. After 48 h of culture, the supernatant was transferred to a centrifuge tube. The cells were then digested with pancreatin (without EDTA) (Beyotime, Nanjing, China) at room temperature and centrifuged at 4 °C for 5 min (10,000 rpm). The supernatant was discarded. Then, 300 μL of 1× buffer was added to each group, and the mixture was well mixed. The mixture was then incubated with 5 μL of Annexin V-FITC (Solarbio, Beijing, China) solution at room temperature for 5 min, protected from light, followed by the addition of 5 μL of PI solution. Apoptosis was detected using flow cytometry (BD Biosciences, Franklin Lakes, NJ, USA).

[11] = system: BEL-7402 cells; experiment: DAPI staining, apoptosis; format: cell-based, human; conditions: 0.625, 1.25, 2.5 μmol/L, 48 h
Procedure: BEL-7402 cells in the logarithmic growth phase were seeded in 12-well plates at a density of 1 × 10^5 cells/well. After overnight incubation, the cells were treated with different concentrations of Mito-ICT-4 (0.625, 1.25, and 2.5 μmol/L), and a control group was included. After 48 h of incubation, the cells were fixed with 4% histocyte fixative (Solarbio, Beijing, China) at room temperature for 15 min. After fixation, 500 μL of DAPI staining solution (Solarbio, Beijing, China) was added to each well and incubated at 37 °C for 20 min. The cells were then observed under an inverted fluorescence microscope (EVOS M5000, Waltham, MA, USA).

[12] = system: BEL-7402 cells; experiment: JC-1 staining, mitochondrial membrane potential; format: cell-based, human; conditions: JC-1, 0.625, 1.25, 2.5 μmol/L, 48 h
Procedure: Drug grouping and administration were performed as described in Section 2.5. After 48 h of incubation, 500 μL of JC-1 fluorescent dye (Beyotime, Nanjing, China) was added to each well. The cells were stained at 37 °C for 30 min, after which the dye was discarded. The cells were then washed three times with PBS and observed under an inverted fluorescence microscope.

[13] = system: BEL-7402 cells; experiment: DCFH-DA probe, intracellular ROS by flow cytometry; format: cell-based, human; conditions: 48-h treatment, dose-dependent
Procedure: Drug grouping and administration were performed as described in Section 2.6. After 48 h of incubation, 500 μL of DCFH-DA probe (Beyotime, Nanjing, China) was added to each well. The cells were stained for 30 min at 37 °C and protected from light. The dye was then discarded, and the cells were washed three times with a serum-free medium. Samples were analyzed using flow cytometry with an excitation wavelength of 480 nm and an emission wavelength of 525 nm.

`COc1ccc(-c2oc3c(CC=C(C)C)c(OC(=O)CCCCCCCCCC[P+](c4ccccc4)(c4ccccc4)c4ccccc4)cc(O)c3c(=O)c2O)cc1` [Mito-ICT-4] was tested, and the “DDIT3 gene expression level” value [1] was “significantly upregulated”, the “SIRT3 gene expression level” value [2] was “significantly downregulated” and the “P38 gene expression level” value [3] was “significantly downregulated”. For the same compound, the “CypD gene expression level” value [4] was “significantly upregulated”, the “MKK6 gene expression level” value [5] was “significantly downregulated” and the IC50 [6] was 5.15 ± 0.59 µM. The IC50 [7] was 10.8 ± 1.2 µM, the IC50 [8] was 11.3 ± 1.55 µM and the IC50 [9] was 0.73 ± 0.06 µM. For the same compound, the “cells undergoing early apoptosis” value ([10]; BEL-7402 cells treated with Mito-ICT-4) was 27.39%, the “apoptosis-inducing ability relative to ICT” value ([10]; BEL-7402 cells, sentence cites [24]) was “approximately 29.8 times” and the total apoptosis rate ([10]; high-dose group (2.5 μmol/L), 48 h) was 27.39%. For the same compound, the “nuclear morphology, DAPI staining” value [11] was “nuclei exhibited crumpling and cleavage”, the mitochondrial membrane potential [12] was “reduction” and the “intracellular ROS levels” value [13] was “significantly elevated”.
